In US20210220356A1, “DIHYDROPYRIMIDINE DERIVATIVES AND USES THEREOF IN THE TREATMENT OF HBV INFECTION OR OF HBV-INDUCED DISEASES” (Janssen Sciences Ireland Unlimited Company, priority 2018, published 2021):
Read-outs that look alike come from different tables or passages of the source.

Assays:
[1] = Cytotoxicity determination in HepG2.2.15 cells (CCK-8); type: cell-based; conditions: human, HepG2.2.15 cells, HepG2.2.15 cells, 5,000 cells/well, 6 days of compound treatment, CCK-8 absorbance 450 nm, highest concentration 100 uM
Outline: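 HepG2.2.15 cells, 5,000/well in 2% FBS medium, treated 6 days with compound (medium refreshed midway), 8-point 3-fold dilutions from 100 uM top. Viability read by CCK-8, 2.5 h at 37° C, absorbance 450 nm with 630 nm reference; CC50 from curve fitting.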

HBV = HBV inhibitory activity in HepG2.2.15 cells (HBV DNA in culture medium by q-PCR); type: cell-based; conditions: HepG2.2.15 cells, 40,000 cells/well, 6 days of compound treatment, HBV DNA in culture medium by q-PCR, highest concentration 10 uM, read-out: EC50
Outline: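 HepG2.2.15 cells (40,000/well, 2% FBS) treated 6 days with compounds, medium refreshed once; 8 points, 3-fold dilution, top 10 uM. Secreted HBV DNA in medium extracted and quantified by q-PCR; EC50 calculated from dose-response.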

[2] = Hepatitis B virus, HepG2.2.15, 144 h

Row | SMILES | CC50 at 6 days [1] [µM] | EC50 (HBV) [nM] | EC50 (HBV; [2]) [nM]
1 | CCOC(=O)C1=C(C2CCc3nn(CC(C)(C)C(=O)O)cc3C2)NC(c2nccs2)=NC1c1ccc(F)c(F)c1Cl (single isomer, unassigned) [Compound 53a, 3-(5-(6-(2-Chloro-3,4-difluorophenyl)-5-(ethoxycarbonyl)-2-(thiazol-2-yl)-3,6-dihydropyrimidin-4-yl)-4,5,6,7-tetrahydro-2H-indazol-2-yl)-2,2-dimethylpropanoic acid] | 7.2 | 132 | 
2 | CCOC(=O)C1=C(C2CCc3oc(CCC(=O)O)nc3C2)NC(c2nccs2)=NC1c1ccc(F)c(F)c1Cl (single isomer, unassigned) [Compound 57c, 3-(5-(6-(2-Chloro-3,4-difluorophenyl)-5-(ethoxycarbonyl)-2-(thiazol-2-yl)-3,6-dihydropyrimidin-4-yl)-4,5,6,7-tetrahydrobenzo[d]oxazol-2-yl)propanoic acid] | 7.7 | 12.5 | 
3 | CCOC(=O)C1=C(C2CCc3nc(CCC(=O)O)oc3C2)NC(c2nccs2)=NC1c1ccc(F)c(F)c1Cl (single isomer, unassigned) [Compound 58b, 3-(6-(6-(2-Chloro-3,4-difluorophenyl)-5-(ethoxycarbonyl)-2-(thiazol-2-yl)-3,6-dihydropyrimidin-4-yl)-4,5,6,7-tetrahydrobenzo[d]oxazol-2-yl)propanoic acid] | 9.8 |  | 6.2
4 | CCOC(=O)C1=C(C2CCc3sc(CCC(=O)O)nc3C2)NC(c2nccs2)=NC1c1ccc(F)c(F)c1Cl (single isomer, unassigned) [Compound 59c, 3-(5-(6-(2-Chloro-3,4-difluorophenyl)-5-(ethoxycarbonyl)-2-(thiazol-2-yl)-3,6-dihydropyrimidin-4-yl)-4,5,6,7-tetrahydrobenzo[d]thiazol-2-yl)propanoic acid] | 4.1 |  | 132
5 | CCOC(=O)C1=C(C2CCc3nc(CCC(=O)O)sc3C2)NC(c2nccs2)=NC1c1ccc(F)c(F)c1Cl (single isomer, unassigned) [Compound 60b, 3-(6-(6-(2-Chloro-3,4-difluorophenyl)-5-(ethoxycarbonyl)-2-(thiazol-2-yl)-3,6-dihydropyrimidin-4-yl)-4,5,6,7-tetrahydrobenzo[d]thiazol-2-yl)propanoic acid] | 3.4 |  | 24.1
6 | COC(=O)C1=C(C2CCc3[nH]ncc3C2)NC(c2nccs2)=NC1c1ccc(F)c(F)c1Cl (single isomer, unassigned) [Compound 65a, Methyl 4-(2-chloro-3,4-difluorophenyl)-6-(4,5,6,7-tetrahydro-1H-indazol-5-yl)-2-(thiazol-2-yl)-1,4-dihydropyrimidine-5-carboxylate] | 11.8 | 56.3 | 
7 | COC(=O)C1=C(C2CCc3nn(CCC(=O)O)cc3C2)NC(c2nccs2)=NC1c1ccc(F)c(F)c1Cl (single isomer, unassigned) [Compound 70b, 3-(-5-(6-(2-chloro-3,4-difluorophenyl)-5-(methoxycarbonyl)-2-(thiazol-2-yl)-3,6-dihydropyrimidin-4-yl)-4,5,6,7-tetrahydro-2H-indazol-2-yl)propanoic acid] | 22.7 | 83 | 
8 | COC(=O)C1=C(C2CCc3nc([C@H]4C[C@H](C(=O)O)C4)oc3C2)NC(c2nccs2)=NC1c1ccc(F)c(F)c1Cl (single isomer, unassigned) [Compound 72b, (trans)-3-(6-(6-(2-Chloro-3,4-difluorophenyl)-5-(methoxycarbonyl)-2-(thiazol-2-yl)-3,6-dihydropyrimidin-4-yl)-4,5,6,7-tetrahydrobenzo[d]oxazol-2-yl)cyclobutanecarboxylic acid] | 7 | 21.5 | 
9 | COC(=O)C1=C(C2CCc3nn(CCCC(=O)O)cc3C2)NC(c2nccs2)=NC1c1ccc(F)c(F)c1Cl (single isomer, unassigned) [Compound 74B, 4-(5-(6-(2-chloro-3,4-difluorophenyl)-5-(methoxycarbonyl)-2-(thiazol-2-yl)-3,6-dihydropyrimidin-4-yl)-4,5,6,7-tetrahydro-2H-indazol-2-yl)butanoic acid] | 19.6 | 66.1 | 
10 | COC(=O)C1=C(C2CCc3nn(C(C)(C)CC(=O)O)cc3C2)NC(c2nccs2)=NC1c1ccc(F)c(F)c1Cl (single isomer, unassigned) [Compound 82b] | 15.9 | 86.1 | 
11 | CCOC(=O)C1=C(C2CCc3nn([C@H]4C[C@H](C(=O)O)C4)cc3C2)NC(c2nccs2)=NC1c1ccc(F)c(F)c1Cl (stereo partly drawn) [Compound 54, (trans)-3-(5-(6-(2-Chloro-3,4-difluorophenyl)-5-(ethoxycarbonyl)-2-(thiazol-2-yl)-3,6-dihydropyrimidin-4-yl)-4,5,6,7-tetrahydro-2H-indazol-2-yl)cyclobutanecarboxylic acid] | 16 |  | 19.8
12 | CCOC(=O)C1=C(C2Cc3cn(CCC(=O)O)nc3C(C)(C)C2)NC(c2nccs2)=NC1c1ccc(F)c(F)c1Cl (stereo not shown) [Compound 55a, 3-(5-(6-(2-chloro-3,4-difluorophenyl)-5-(ethoxycarbonyl)-2-(thiazol-2-yl)-3,6-dihydropyrimidin-4-yl)-7,7-dimethyl-4,5,6,7-tetrahydro-2H-indazol-2-yl)propanoic acid] | 8.5 | 81 | 
13 | CCOC(=O)C1=C(C2CCc3c(cn(CCC(=O)O)c3C#N)C2)NC(c2nccs2)=NC1c1ccc(F)c(F)c1Cl (stereo not shown) [Compound 62, 3-(5-(6-(2-Chloro-3,4-difluorophenyl)-5-(ethoxycarbonyl)-2-(thiazol-2-yl)-3,6-dihydropyrimidin-4-yl)-1-cyano-4,5,6,7-tetrahydro-2H-isoindol-2-yl)propanoic acid] | 5 |  | 6.9
14 | CCOC(=O)C1=C(C2CCc3cn(CCC(=O)O)c(C#N)c3C2)NC(c2nccs2)=NC1c1ccc(F)c(F)c1Cl (stereo not shown) [Compound 63, 3-(6-(6-(2-Chloro-3,4-difluorophenyl)-5-(ethoxycarbonyl)-2-(thiazol-2-yl)-3,6-dihydropyrimidin-4-yl)-1-cyano-4,5,6,7-tetrahydro-2H-isoindol-2-yl)propanoic acid] | 5.1 |  | 436
15 | COC(=O)C1=C(C2CCc3nc(CCC(=O)O)ncc3C2)NC(c2nccs2)=NC1c1ccc(F)c(F)c1Cl (stereo not shown) [Compound 64, 3-(6-(6-(2-Chloro-3,4-difluorophenyl)-5-(methoxycarbonyl)-2-(thiazol-2-yl)-3,6-dihydropyrimidin-4-yl)-5,6,7,8-tetrahydroquinazolin-2-yl)propanoic acid] | 26.4 |  | 70
16 | CCOC(=O)C1=C(C2CCc3[nH]ncc3C2)NC(c2nccs2)=NC1c1ccc(F)c(F)c1Cl (stereo not shown) [Compound 66, Ethyl 4-(2-chloro-3,4-difluorophenyl)-6-(4,5,6,7-tetrahydro-1H-indazol-5-yl)-2-(thiazol-2-yl)-1,4-dihydropyrimidine-5-carboxylate] | 6.4 |  | 64.7
17 | COC(=O)C1=C(C2CCc3nn(CCC(=O)O)cc3C2)NC(c2nccs2)=NC1c1ccc(F)c(F)c1C (stereo not shown) [Compound 76c, 3-(5-(6-(3,4-difluoro-2-methylphenyl)-5-(methoxycarbonyl)-2-(thiazol-2-yl)-3,6-dihydropyrimidin-4-yl)-4,5,6,7-tetrahydro-2H-indazol-2-yl)propanoic acid] | 16.1 |  | 13
